Measured values taken from ChEMBL document CHEMBL1201862, “PubChem BioAssay data set” (2004).
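Method: 48-hour compound exposure of cells in 96-well plates, five concentrations, linear interpolation of endpoints. Abbreviation: GI50, concentration required for 50% inhibition of growth.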 Active and inactive are the calls of the source. No stated cut-off is given here; in the data, active = GI50 up to about 1.1 µM and inactive = higher.

Legend:
Assay in all cases: inhibition of tumour cell growth, NCI panel, 48 h
ACHN = system: ACHN
SF-539 = system: SF-539
K562 = system: K562
EKVX = system: EKVX
SR = system: SR
A549 = system: A549
SK-OV-3 = system: SK-OV-3
HCT-15 = system: HCT-15
SF-268 = system: SF-268
IGROV-1 = system: IGROV-1
RPMI-8226 = system: RPMI-8226
NCI-H226 = system: NCI-H226
MDA-MB-231 = system: MDA-MB-231
NCI-H522 = system: NCI-H522
Hs-578T = system: Hs-578T
HL-60 = system: HL-60
M14 = system: M14
KM12 = system: KM12
U-251 = system: U-251
NCI-H460 = system: NCI-H460
DU-145 = system: DU-145
NCI/ADR-RES = system: NCI/ADR-RES
TK-10 = system: TK-10
HCT-116 = system: HCT-116
RXF 393 = system: RXF 393
OVCAR-3 = system: OVCAR-3
NCI-H23 = system: NCI-H23
SK-MEL-5 = system: SK-MEL-5
OVCAR-4 = system: OVCAR-4
SK-MEL-2 = system: SK-MEL-2
UO-31 = system: UO-31
CAKI-1 = system: CAKI-1
UACC-62 = system: UACC-62
MOLT-4 = system: MOLT-4
MCF7 = system: MCF7
HOP-62 = system: HOP-62
SNB-75 = system: SNB-75
BT-549 = system: BT-549
786-0 = system: 786-0
UACC-257 = system: UACC-257
SNB-19 = system: SNB-19
MDA-MB-435 = system: MDA-MB-435
T47D = system: T47D
PC-3 = system: PC-3
COLO 205 = system: COLO 205
SK-MEL-28 = system: SK-MEL-28
Malme-3M = system: Malme-3M
OVCAR-8 = system: OVCAR-8
A498 = system: A498
HT-29 = system: HT-29
SF-295 = system: SF-295
HOP-92 = system: HOP-92
OVCAR-5 = system: OVCAR-5
SW-620 = system: SW-620
CCRF-CEM = system: CCRF-CEM
SN12C = system: SN12C
LOX IMVI = system: LOX IMVI

O=c1c(Cl)c(Cl)c(=O)c2sc3cc(Cl)ccc3[nH]c1=2
GI50 (ACHN): 53.1 µM (inactive) | GI50 (SF-539): 43 µM (inactive) | GI50 (K562): 15.5 µM (inactive) | GI50 (EKVX): 14 µM (inactive) | GI50 (SR): 7.48 µM (inactive) | GI50 (A549): > 100 µM (inactive) | GI50 (SK-OV-3): > 100 µM (inactive) | GI50 (HCT-15): 42.3 µM | GI50 (SF-268): 38.6 µM (inactive) | GI50 (IGROV-1): 10.5 µM (inactive) | GI50 (RPMI-8226): 4 µM (inactive) | GI50 (NCI-H226): 27.3 µM (inactive) | GI50 (MDA-MB-231): 2.04 µM (inactive) | GI50 (NCI-H522): 16.1 µM (inactive) | GI50 (Hs-578T): 39 µM (inactive) | GI50 (HL-60): 7.73 µM (inactive) | GI50 (M14): 40.5 µM (inactive) | GI50 (KM12): > 100 µM (inactive) | GI50 (U-251): 31.4 µM (inactive) | GI50 (NCI-H460): > 100 µM (inactive) | GI50 (DU-145): > 100 µM (inactive) | GI50 (NCI/ADR-RES): 5.36 µM (inactive) | GI50 (TK-10): 65.6 µM (inactive) | GI50 (HCT-116): 33 µM (inactive) | GI50 (RXF 393): 66.4 µM (inactive) | GI50 (OVCAR-3): 15 µM (inactive) | GI50 (NCI-H23): 23.3 µM (inactive) | GI50 (SK-MEL-5): 25.1 µM (inactive) | GI50 (OVCAR-4): 5.66 µM (inactive) | GI50 (SK-MEL-2): > 100 µM (inactive) | GI50 (UO-31): 18.2 µM (inactive) | GI50 (CAKI-1): > 100 µM (inactive) | GI50 (UACC-62): 23.4 µM (inactive) | GI50 (MOLT-4): 2.47 µM (inactive) | GI50 (MCF7): 73.3 µM (inactive) | GI50 (HOP-62): > 100 µM (inactive) | GI50 (SNB-75): 47.4 µM (inactive) | GI50 (BT-549): 2.81 µM (inactive) | GI50 (786-0): > 100 µM (inactive) | GI50 (UACC-257): 15.3 µM (inactive) | GI50 (SNB-19): 78.9 µM (inactive) | GI50 (MDA-MB-435): 34 µM (inactive) | GI50 (T47D): 25.9 µM (inactive) | GI50 (PC-3): 32.6 µM (inactive) | GI50 (COLO 205): 90.4 µM (inactive) | GI50 (SK-MEL-28): > 100 µM (inactive) | GI50 (Malme-3M): 40.1 µM (inactive) | GI50 (OVCAR-8): 14.5 µM (inactive) | GI50 (A498): > 100 µM (inactive) | GI50 (HT-29): > 100 µM (inactive) | GI50 (SF-295): 70.8 µM (inactive) | GI50 (HOP-92): 16.7 µM (inactive) | GI50 (OVCAR-5): 29.6 µM (inactive) | GI50 (SW-620): 20.3 µM (inactive)

CN(Cc1cc(Cl)cc(Cl)c1)CC(C(=O)c1ccccc1)c1ccccc1 (stereo unspecified)
GI50 (ACHN): 0.445 µM (active) | GI50 (SF-539): 5.77 µM (inactive) | GI50 (K562): 0.962 µM (active) | GI50 (EKVX): 16.7 µM (inactive) | GI50 (SR): 0.473 µM (active) | GI50 (CCRF-CEM): < 43.9 nM (active) | GI50 (A549): 23.3 µM (inactive) | GI50 (SK-OV-3): 10.6 µM (inactive) | GI50 (HCT-15): 0.368 µM | GI50 (SF-268): 13.7 µM (inactive) | GI50 (IGROV-1): 26.7 µM (inactive) | GI50 (RPMI-8226): 0.1 µM (active) | GI50 (NCI-H226): 5.5 µM (inactive) | GI50 (MDA-MB-231): 6.81 µM (inactive) | GI50 (NCI-H522): 1.54 µM (inactive) | GI50 (Hs-578T): 3.15 µM (inactive) | GI50 (HL-60): 1.65 µM (inactive) | GI50 (M14): 2.98 µM (inactive) | GI50 (KM12): 3.78 µM (inactive) | GI50 (U-251): 1.38 µM (inactive) | GI50 (NCI-H460): 27.5 µM (inactive) | GI50 (DU-145): 4.69 µM (inactive) | GI50 (NCI/ADR-RES): 1.57 µM (inactive) | GI50 (TK-10): 6.37 µM (inactive) | GI50 (HCT-116): 0.689 µM (active) | GI50 (RXF 393): 4 µM (inactive) | GI50 (OVCAR-3): 0.605 µM (active) | GI50 (NCI-H23): 1.7 µM (inactive) | GI50 (SK-MEL-5): 10.5 µM (inactive) | GI50 (OVCAR-4): 2.07 µM (inactive) | GI50 (SK-MEL-2): 10.2 µM (inactive) | GI50 (UO-31): 6.46 µM (inactive) | GI50 (CAKI-1): 1.03 µM (active) | GI50 (UACC-62): 2.9 µM (inactive) | GI50 (MOLT-4): 0.684 µM (active) | GI50 (MCF7): 3.73 µM (inactive) | GI50 (HOP-62): 24.8 µM (inactive) | GI50 (SN12C): 4.67 µM (inactive) | GI50 (SNB-75): 7.48 µM (inactive) | GI50 (BT-549): 3.06 µM (inactive) | GI50 (786-0): 2.49 µM (inactive) | GI50 (UACC-257): 2.56 µM (inactive) | GI50 (SNB-19): 14.4 µM (inactive) | GI50 (MDA-MB-435): 3.61 µM (inactive) | GI50 (T47D): 2.02 µM (inactive) | GI50 (LOX IMVI): 1.65 µM (inactive) | GI50 (PC-3): 4.91 µM (inactive) | GI50 (COLO 205): 3.92 µM (inactive) | GI50 (SK-MEL-28): 2.9 µM (inactive) | GI50 (Malme-3M): 8 µM (inactive) | GI50 (OVCAR-8): 4.2 µM (inactive) | GI50 (A498): 14.5 µM (inactive) | GI50 (HT-29): 1.12 µM (active) | GI50 (SF-295): 27 µM (inactive) | GI50 (HOP-92): 7.33 µM (inactive) | GI50 (OVCAR-5): 6.21 µM (inactive) | GI50 (SW-620): 0.326 µM (active)
